Assay results taken from patent publication US7361666B2, “Heterocyclic analgesic compounds and methods of use thereof” (Sepracor, Inc., priority 1999, dated 2008).

Key:
[1] = biological target: μ opioid receptor (Homo sapiens, UniProt P35372); experiment: Opiate receptor binding (μ); settings: procedure of Wang et al.
Excerpt: Another assay useful in the present invention concerns determining the ability of a ligand to bind to a biological receptor utilizing a technique well known in the art referred to as a radioligand binding assay. This assay accurately determines the specific binding of a radioligand to a targeted receptor through the delineation of its total and nonspecific binding components. Total binding is defined as the amount of radioligand that remains following the rapid separation of the radioligand bound in a receptor preparation (cell homogenates or recombinate receptors) from that which is unbound. The nonspecific binding component is defined as the amount of radioligand that remains following separation of the reaction mixture consisting of receptor, radioligand and an excess of unlabeled ligand. Under this condition, the only radioligand that remains represents that which is bound to components other that receptor. The specific radioligand bound is determined by subtracting the nonspecific from total radioactivity bound. For a specific example of radioligand binding assay for μ-opioid receptor, see Wang, J. B. et al. FEBS Letters 1994, 338, 217.
(§1) The opioid (μ, κ, δ) receptor-binding capabilities of compounds described herein were determined according to the procedures outlined by Wang et al. (FEBS Letters 1994, 338, 217), Maguire et al. (Eur. J. Pharmacol. 1992, 213, 219), and Simonin et al. (Mol. Pharmacol. 1994, 46, 1015).

[2] = biological target: κ opioid receptor (Cavia porcellus, UniProt P41144); experiment: Opiate receptor binding (κ); settings: procedure of Maguire et al.
Protocol: as §1

[3] = biological target: δ opioid receptor (Homo sapiens, UniProt P41143); experiment: Opiate receptor binding (δ); settings: procedure of Simonin et al.
Protocol: as §1

Chain of μ opioid receptor (P35372 whole entry): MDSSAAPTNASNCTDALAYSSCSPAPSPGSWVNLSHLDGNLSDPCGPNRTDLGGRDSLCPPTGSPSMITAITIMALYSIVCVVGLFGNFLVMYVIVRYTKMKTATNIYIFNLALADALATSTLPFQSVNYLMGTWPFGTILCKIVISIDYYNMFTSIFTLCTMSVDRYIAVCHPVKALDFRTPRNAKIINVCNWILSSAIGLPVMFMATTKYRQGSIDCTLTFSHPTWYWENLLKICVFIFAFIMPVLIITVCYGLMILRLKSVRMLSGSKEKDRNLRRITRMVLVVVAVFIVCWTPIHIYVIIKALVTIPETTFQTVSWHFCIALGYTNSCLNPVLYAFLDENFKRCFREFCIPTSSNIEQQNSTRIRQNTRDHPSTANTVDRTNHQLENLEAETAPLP
Chain of κ opioid receptor (P41144 whole entry): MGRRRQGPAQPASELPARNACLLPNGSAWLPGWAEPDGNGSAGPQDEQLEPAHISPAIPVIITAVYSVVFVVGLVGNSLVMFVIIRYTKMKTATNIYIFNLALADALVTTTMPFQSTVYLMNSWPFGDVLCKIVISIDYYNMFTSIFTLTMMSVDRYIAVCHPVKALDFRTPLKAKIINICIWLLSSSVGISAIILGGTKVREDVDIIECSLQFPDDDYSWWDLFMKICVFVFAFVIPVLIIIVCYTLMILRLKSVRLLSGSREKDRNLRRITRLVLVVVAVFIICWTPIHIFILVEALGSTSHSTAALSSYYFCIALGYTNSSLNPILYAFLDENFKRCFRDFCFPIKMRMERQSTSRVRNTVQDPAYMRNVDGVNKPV
Chain of δ opioid receptor (P41143 whole entry): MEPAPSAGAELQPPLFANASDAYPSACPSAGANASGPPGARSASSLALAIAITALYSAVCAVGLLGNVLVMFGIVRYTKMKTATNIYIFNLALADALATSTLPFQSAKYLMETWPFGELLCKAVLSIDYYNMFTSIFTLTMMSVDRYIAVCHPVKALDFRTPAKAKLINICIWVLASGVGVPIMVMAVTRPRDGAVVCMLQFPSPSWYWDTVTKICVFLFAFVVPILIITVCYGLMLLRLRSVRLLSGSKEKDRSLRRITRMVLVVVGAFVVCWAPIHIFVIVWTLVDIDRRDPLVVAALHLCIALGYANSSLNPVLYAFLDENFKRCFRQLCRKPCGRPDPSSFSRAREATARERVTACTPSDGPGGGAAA

Row | SMILES | IC50 [1] | IC50 [2] | IC50 [3]
1 | CCC(=O)N(CC1CCCN(CCc2ccccc2)C1)C(C)c1ccccc1 (single isomer, unassigned) [Compound 224, N-(1-Phenethyl-piperidin-3-ylmethyl)-N-(1-phenyl-ethyl)-propionamide] | < 1 µM | > 1 µM | > 1 µM
2 | CCC(=O)N(CC1CCCN(CCc2ccccc2)C1)C(C)c1ccccc1 (single isomer, unassigned) [Compound 225, N-(1-Phenethyl-piperidin-3-ylmethyl)-N-(1-phenyl-ethyl)-propionamide] | < 1 µM | > 1 µM | > 1 µM
3 | CCC(=O)N(CC1CCCN(CCc2ccccc2)C1)C(C)c1ccccc1 (single isomer, unassigned) [Compound 220, N-(1-Phenethyl-piperidin-3-ylmethyl)-N-(1-phenyl-ethyl)-propionamide] | < 1 µM | < 1 µM | > 1 µM
4 | CCC(=O)N(CC1CCCN(CCc2ccccc2)C1)C(C)c1ccccc1 (single isomer, unassigned) [Compound 221, N-(1-Phenethyl-piperidin-3-ylmethyl)-N-(1-phenyl-ethyl)-propionamide] | < 1 µM | < 1 µM | > 1 µM
5 | CCC(=O)N(CC1CCCN(CCc2ccccc2)C1)C(C)c1ccccc1 (single isomer, unassigned) [Compound 222, N-(1-Phenethyl-piperidin-3-ylmethyl)-N-(1-phenyl-ethyl)-propionamide] | > 1 µM | > 1 µM | > 1 µM
6 | CCC(=O)N(CC1CCCN(CCc2ccccc2)C1)C(C)c1ccccc1 (single isomer, unassigned) [Compound 223, N-(1-Phenethyl-piperidin-3-ylmethyl)-N-(1-phenyl-ethyl)-propionamide] | < 0.1 µM | > 1 µM | > 1 µM
